Experimental data: PubChem BioAssay AID342 (DTP/NCI, 2004)
Values joined by “and” are separate entries in the source; they are usually repeats but may differ in a detail not shown here. Identical values can stand only once.

System: Swiss mice, Sarcoma 180 sc, mean tumor weight T/C
Experiment: NCI In Vivo Anticancer Drug Screen. Data for tumor model Sarcoma 180 (subcutaneous) in Swiss mice
Conditions: endpoint: mean tumor weight, higher = larger tumour
Outline: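 Readout is the ratio of treated-group measurement to vehicle-control measurement (T/C), based on survival or tumor size in mice carrying transplanted tumors.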

CC(=O)C1(/C(C)=C/C2C(C=O)=CC(C)(C)C2O)CC1 (stereo not given)
T/C (dose: 0.25 mg/kg/injection, schedule: Q01DX007 (ip), vehicle: saline): 106 % of control
T/C (dose: 0.5 mg/kg/injection, schedule: Q01DX007 (ip), vehicle: saline): 59 % of control
T/C (dose: 1.0 mg/kg/injection, schedule: Q01DX007 (ip), vehicle: saline): 65 % of control
T/C (dose: 2.0 mg/kg/injection, schedule: Q01DX007 (ip), vehicle: saline): 67 % of control
T/C (dose: 8.0 mg/kg/injection, schedule: Q01DX007 (ip), vehicle: saline): 75 % of control
T/C (dose: 16.0 mg/kg/injection, schedule: Q01DX007 (ip), vehicle: saline): 94 % of control and 102 % of control
T/C (dose: 32.0 mg/kg/injection, schedule: Q01DX007 (ip), vehicle: saline): 99 % of control
T/C (dose: 64.0 mg/kg/injection, schedule: Q01DX007 (ip), vehicle: saline): 77 % of control
T/C (dose: 128.0 mg/kg/injection, schedule: Q01DX007 (ip), vehicle: saline): 78 % of control

Nc1nc(=S)c2[nH]cnc2[nH]1
T/C (dose: 0.06 mg/kg/injection, schedule: Q#A X014 (ip), vehicle: carboxymethylcellulose (CMC)): 72 % of control
T/C (dose: 0.12 mg/kg/injection, schedule: Q01DX007 (ip), vehicle: carboxymethylcellulose (CMC)): 78 % of control
T/C (dose: 0.25 mg/kg/injection, schedule: Q01DX007 (ip), vehicle: carboxymethylcellulose (CMC)): 82 % of control
T/C (dose: 0.25 mg/kg/injection, schedule: Q#A X014 (ip), vehicle: carboxymethylcellulose (CMC)): 89 % of control
T/C (dose: 0.5 mg/kg/injection, schedule: Q01DX007 (ip), vehicle: carboxymethylcellulose (CMC)): 97 % of control
T/C (dose: 0.6 mg/kg/injection, schedule: Q01DX007 (ip), vehicle: carboxymethylcellulose (CMC)): 49 % of control
T/C (dose: 0.75 mg/kg/injection, schedule: Q01DX007 (ip), vehicle: carboxymethylcellulose (CMC)): 78 % of control
T/C (dose: 1.0 mg/kg/injection, schedule: Q01DX007 (ip), vehicle: carboxymethylcellulose (CMC)): 22 % of control and 37 % of control
T/C (dose: 1.0 mg/kg/injection, schedule: Q#A X014 (ip), vehicle: carboxymethylcellulose (CMC)): 46 % of control
T/C (dose: 1.5 mg/kg/injection, schedule: Q01DX007 (ip), vehicle: carboxymethylcellulose (CMC)): 33 % of control
T/C (dose: 2.0 mg/kg/injection, schedule: Q01DX007 (ip), vehicle: carboxymethylcellulose (CMC)): 37 % of control and 50 % of control
T/C (dose: 3.0 mg/kg/injection, schedule: Q01DX007 (ip), vehicle: carboxymethylcellulose (CMC)): 25 % of control
T/C (dose: 4.0 mg/kg/injection, schedule: Q#A X014 (ip), vehicle: carboxymethylcellulose (CMC)): 23 % of control
T/C (dose: 6.7 mg/kg/injection, schedule: Q01DX007 (ip), vehicle: carboxymethylcellulose (CMC)): 10 % of control and 15 % of control
T/C (dose: 10.0 mg/kg/injection, schedule: Q01DX007 (ip), vehicle: carboxymethylcellulose (CMC)): 3 % of control
T/C (dose: 187.5 mg/kg/injection, schedule: Q#A X014 (ip), vehicle: carboxymethylcellulose (CMC)): 58 % of control
T/C (dose: 375.0 mg/kg/injection, schedule: Q#A X014 (ip), vehicle: carboxymethylcellulose (CMC)): 51 % of control
T/C (dose: 750.0 mg/kg/injection, schedule: Q#A X014 (ip), vehicle: carboxymethylcellulose (CMC)): 35 % of control
T/C (dose: 1500.0 mg/kg/injection, schedule: Q#A X014 (ip), vehicle: carboxymethylcellulose (CMC)): 16 % of control

COc1ccc(CSc2ncnc3nc[nH]c23)cc1
T/C (dose: 55.5 mg/kg/injection, schedule: Q#A X014 (ip), vehicle: methylcellulose (MC)): 48 % of control
T/C (dose: 83.0 mg/kg/injection, schedule: Q#A X014 (ip), vehicle: methylcellulose (MC)): 29 % of control
T/C (dose: 125.0 mg/kg/injection, schedule: Q#A X014 (ip), vehicle: methylcellulose (MC)): 14 % of control
T/C (dose: 187.5 mg/kg/injection, schedule: Q#A X014 (ip), vehicle: methylcellulose (MC)): 10 % of control

C[C@@H]1C[C@H]2[C@@H]3CCC4=CC(=O)C=C[C@]4(C)[C@@]3(F)[C@@H](O)C[C@]2(C)[C@@]1(O)C(=O)CO
T/C (dose: 7.0 mg/kg/injection, schedule: Q01DX007 (sc), vehicle: steriod suspending solution): 50 % of control and 56 % of control
T/C (dose: 11.0 mg/kg/injection, schedule: Q01DX007 (sc), vehicle: steriod suspending solution): 38 % of control and 39 % of control
T/C (dose: 16.0 mg/kg/injection, schedule: Q01DX007 (sc), vehicle: steriod suspending solution): 35 % of control and 36 % of control and 47 % of control
T/C (dose: 24.0 mg/kg/injection, schedule: Q01DX007 (sc), vehicle: steriod suspending solution): 30 % of control and 35 % of control and 40 % of control

O=C(O)C(=O)O.[U]
T/C (dose: 1.5 mg/kg/injection, schedule: Q01DX007 (ip), vehicle: saline): 85 % of control
T/C (dose: 3.0 mg/kg/injection, schedule: Q01DX007 (ip), vehicle: saline): 79 % of control
T/C (dose: 6.0 mg/kg/injection, schedule: Q01DX007 (ip), vehicle: saline): 82 % of control
T/C (dose: 18.5 mg/kg/injection, schedule: Q01DX007 (ip), vehicle: saline): 32 % of control
T/C (dose: 27.8 mg/kg/injection, schedule: Q01DX007 (ip), vehicle: saline): 33 % of control and 42 % of control
T/C (dose: 41.7 mg/kg/injection, schedule: Q01DX007 (ip), vehicle: saline): 41 % of control
T/C (dose: 62.5 mg/kg/injection, schedule: Q01DX007 (ip), vehicle: saline): 35 % of control
T/C (dose: 93.8 mg/kg/injection, schedule: Q01DX007 (ip), vehicle: saline): 39 % of control

C=CC1CN2CCC1CC2C(O)c1ccnc2ccc(OC)cc12 (stereo not given)
T/C (dose: 30.16 mg/kg/injection, schedule: Q01DX007 (ip), vehicle: other): 96 % of control
T/C (dose: 31.25 mg/kg/injection, schedule: Q#A X014 (ip), vehicle: carboxymethylcellulose (CMC)): 101 % of control
T/C (dose: 47.12 mg/kg/injection, schedule: Q01DX007 (ip), vehicle: carboxymethylcellulose (CMC)): 92 % of control
T/C (dose: 56.25 mg/kg/injection, schedule: Q01DX007 (ip), vehicle: carboxymethylcellulose (CMC)): 89 % of control
T/C (dose: 60.32 mg/kg/injection, schedule: Q01DX007 (ip), vehicle: other): 75 % of control
T/C (dose: 62.5 mg/kg/injection, schedule: Q#A X014 (ip), vehicle: carboxymethylcellulose (CMC)): 120 % of control
T/C (dose: 94.25 mg/kg/injection, schedule: Q01DX007 (ip), vehicle: carboxymethylcellulose (CMC)): 93 % of control
T/C (dose: 112.5 mg/kg/injection, schedule: Q01DX007 (ip), vehicle: carboxymethylcellulose (CMC)): 80 % of control
T/C (dose: 120.65 mg/kg/injection, schedule: Q01DX007 (ip), vehicle: other): 99 % of control
T/C (dose: 125.0 mg/kg/injection, schedule: Q#A X014 (ip), vehicle: carboxymethylcellulose (CMC)): 121 % of control
T/C (dose: 188.5 mg/kg/injection, schedule: Q01DX007 (ip), vehicle: carboxymethylcellulose (CMC)): 78 % of control
T/C (dose: 225.0 mg/kg/injection, schedule: Q01DX007 (ip), vehicle: carboxymethylcellulose (CMC)): 118 % of control
T/C (dose: 241.3 mg/kg/injection, schedule: Q01DX007 (ip), vehicle: other): 97 % of control
T/C (dose: 250.0 mg/kg/injection, schedule: Q#A X014 (ip), vehicle: carboxymethylcellulose (CMC)): 50 % of control

CO[C@H]1CC[C@@]2(C)C(=CC[C@H]3[C@@H]4C[C@H](O)C[C@@]4(C)CC[C@@H]32)C1
T/C (dose: 2.5 mg/kg/injection, schedule: Q01DX007 (sc), vehicle: steriod suspending solution): 105 % of control
T/C (dose: 5.0 mg/kg/injection, schedule: Q01DX007 (sc), vehicle: steriod suspending solution): 80 % of control
